How the values were obtained:
[1] = Interimage in bilayer format: IDIR-6 in blue layer, IEM in green layer; details: for Cg /Cb+g (interimage): IEM or CIEM in green layer at 7.2×10^-3 mmol/m^2; for Relative Speed (green layer): IEM or CIEM in green layer, normalized to check
Description: (§1) Bilayer photographic elements were prepared by coating the following layers on a cellulose triacetate film support (coverages are in g/m^2). Unless otherwise noted, all comparative and inventive compounds were dispersed in twice their own weight of N,N-dibutyllauramide: […] Layer 3 (Interlayer): gelatin at 0.64, ILS-1 at 0.11 and FD-1 at 0.11. […] Layer 5 (Overcoat): gelatin at 2.79 and 0.02 bis-vinylsulfonemethylether. […] Contrast of the elements was determined using the maximum slope between any two density points. In this test, the ratio of the contrast of the green only exposure to the contrast of the green of a blue and green exposure (Cg /Cb+g) is a measure of the interimage. A higher ratio means more inhibition originating from the blue and affecting the green record. Relative speed of the green layer was determined by measuring the speed point +0.15 density units above Dmin and normalizing to the check position.

[2] = Interimage in bilayer format: IDIR-2 in blue layer, IEM in green layer; details: for Cg /Cb+g (interimage): IEM or CIEM in green layer at 7.2×10^-3 mmol/m^2, higher ratio = more interimage, no-IEM check; for Relative Speed (green layer): IEM or CIEM in green layer, speed point +0.15 density above Dmin, normalized to check
Description: as §1

[3] = Interimage in bilayer format: IDIR-1 in green layer, IEM in blue layer
Description: Samples of each element were given a stepped exposure of either green light only or blue and green light combined and processed in the KODAK FLEXICOLOR™ (C4 1) process as described in British Journal of Photography Annual, 1988, pp196-198. Contrast of the elements was determined using the maximum slope between any two density points. […] A higher ratio means more inhibition originating from the blue and affecting the green record. Relative speed of the green layer was determined by measuring the speed point +0.15 density units above Dmin and normalizing to the check position.
Additional bilayer elements were prepared in a manner similar to above by coating the following layers:
Layer 1 (Antihalation Layer): black colloidial elemental silver at 0.34 and gelatin at 2.41.
Layer 2 (Causer Layer): gelatin at 2.79, IDIR-1 at 0.054, coupler M-1 (dispersed as described previously) added at 0.045, and 0.81 green sensitized AgIBr tabular emulsion.
Layer 3 (Interlayer): gelatin at 0.64, ILS-1 at 0.11 and FD-1 at 0.11.
Layer 4 (Receiver Layer): gelatin at 2.79, coupler Y-2 at 1.08, IDIR-6 at 0.076, 0.79 blue sensitized AgIBr tabular emulsion and (when present) IEM-4 (dispersed as above) at 0.0023.
Layer 5 (Overcoat): gelatin at 2.79 and 0.02 bis-vinylsulfonemethylether.

[4] = Interimage in multilayer format (density change of receiver record); details: CDIR-1 in red
Description: Multilayer Film Example ML-1:
Layer 1 (Antihalation layer): black collodial silver sol at 0.135; ILS-1 at 0.162,
Layer 2 (Slow cyan layer): a blend of two red sensitized (both with a mixture of RSD-1 and RSD-2) tabular silver iodobromide emulsions: (i) 0.66×0.12, 4.1 mole % I at 0.302 (ii) 0.55×0.08, 1.5 mole % I at 0.464; cyan dye-forming coupler C-1 at 0.535; DIR coupler CDIR-1 at 0.027; bleach accelerator releasing coupler B-1 at 0.057; masking coupler MC-1 at 0.032; and gelatin at 1.68.
Layer 3 (Mid cyan layer): a blend of two red sensitized (same as above) tabular silver iodobromide emulsions: (i) […], 4.1 mole % I at 0.194 (ii) 1.07×0.11, 4.1 mole % I at 0.238; cyan coupler C-1 at 0.171; CDIR-1 at 0.019; MC-1 at 0.032; B-1 at 0.008; and gelatin at 1.08.
Layer 4 (Fast cyan layer): a red sensitized (same as above) tabular silver iodobromide emulsion (1.33×0.12, 4.1 mole % I) at 0.594; C-1 at 0.184; CDIR-1 at 0.027; MC-1 at 0.022; and gelatin at 0.918.
Layer 5 (Interlayer): ILS-1 at 0.086 and gelatin at 0.540.
Layer 6 (Slow magenta layer): a blend of two green sensitized (both with a mixture of GSD-1 and GSD-2) silver iodobromide emulsions: (i) 0.81×0.12, 2.6 mole % iodide at 0.346 and (ii) 0.55×0.08, 1.5 mole % iodide at 0.130; magenta dye forming coupler M-1 at 0.270; MC-2 at 0.086; IDIR-5 at 0.011; and gelatin at 1.08.
Layer 7 (Mid magenta layer): a blend of two green sensitized (same as above) tabular silver iodobromide emulsions (i) 1.22×0.11, 4.1 mole % I at 0.248 and (ii) 1.07×0.11, 4.1 mole % I at 0.248; M-1 at 0.124; MC-2 at 0.119; IDIR-5 at 0.043; OxDS-2 at 0.016; and gelatin at 1.22.
Layer 8 (Fast magenta layer): a green sensitized tabular silver iodobromide (1.33×0.12, 4.1 mole % I) emulsion at 0.486; M-1 at 0.076; MC-2 at 0.054; B-1 at 0.003; IDIR-5 at 0.015; OxDS-2 at 0.009; and gelatin at 1.02.
Layer 9 (Yellow filter layer): yellow filter dye FD-1 at 0.054; ILS-1 at 0.086; and gelatin at 0.648.
Layer 10 (Slow yellow layer): a blend of three blue sensitized (all with a mixture of BSD-1 and BSD-2) tabular silver iodobromide emulsions (i) 0.55×0.08, 1.5 mole % I at 0.270 (ii) […], 1.5 mole % I at 0.248 and (iii) 1.25×0.14, 4.1 mole % I at 0.400; yellow dye forming coupler Y-2 at 1.08; IDIR-6 at 0.076; CDIR-1 at 0.032; B-1 at 0.022; and gelatin at 1.879.
Layer 11 (Fast yellow layer): a blend of two blue sensitized (both with a mixture of BSD-1 and BSD-2) tabular silver iodobromide emulsions (i) 1.25×0.14, 4.1 mole % I at 0.108 (ii) 2.67×0.13, 4.1 mole % I at 0.378; Y-2 at 0.238; IDIR-6 at 0.076; B-1 at 0.005; and gelatin at 0.810.
Layer 12 (Protective overcoat and UV filter layer): silver bromide Lippman emulsion at 0.216; UV-1 at a total of 0.108; gelatin at 1.242 and bis(vinylsulfonyl)methane hardener at 1.75% of total gelatin weight.
Surfactants, coating aids, emulsion addenda, sequestrants, thickeners, lubricants, matte and tinting dyes were added to the appropriate layers as is common in the art. […]
These multilayer coatings were given a stepped exposure in one color record but only flashed (non-imagewise exposure) in the other two records and processed as described for the bilayer experiments. To monitor interimage, a step nearest to density of 1.5 in the stepped color record (the causer) was chosen, and the difference in density of the other color records (the receivers) at that step and at the no exposure step of the causer was determined. […]

[5] = ML-4: IEM-4 in green, IDIR-2 in blue

| SMILES | Cg /Cb+g (interimage) [1] | Relative Speed (green layer) [1] | Cg /Cb+g (interimage) [2] | Relative Speed (green layer) [2] | Cb /Cb+g (interimage) ([3]; IEM-4 in blue layer at 0.0023 g/m^2) | Relative Speed ([3]; IEM-4 in blue layer at 0.0023 g/m^2, normalized to check) | R→G density difference (interimage) ([4]; ML-3: IEM-4 in green, IDIR-6 in blue) | B→G density difference (interimage) ([4]; ML-3: IEM-4 in green, IDIR-6 in blue, more negative = increased interimage) | B→G density difference (interimage) [4, 5] | R→G density difference (interimage) [4, 5] |
| --- | --- | --- | --- | --- | --- | --- | --- | --- | --- | --- |
| CC(=O)Nc1cccc(-n2nn[nH]c2=S)c1 [CIEM-1] | 1.16 | 1.01 | 1.19 | 1.01 | – | – | – | – | – | – |
| CCCCCCCOC(=O)C(CCSC)n1nn[nH]c1=S (racemic) [IEM-4] | 1.35 | 0.94 | 1.62 | 0.96 | 1.57 | 0.98 | -0.206 | -0.129 | -0.212 | -0.238 |

Reference: patent US6190849A, “Photographic element containing ballasted tetrazole derivative and inhibitor releasing coupler” (priority 1999, dated 2001)
